The values that follow are results of earlier work, collected in the CATMoS acute toxicity set (Mansouri et al. 2021).

Values joined by “and” are separate entries in the source; they are usually repeats but may differ in a detail not shown here. Identical values can stand only once.

The series can be described thus: rat acute oral toxicity. To be noted: in vivo. An excerpt:
[…]The data set underlying the modeling effort for this project was initially compiled by NICEATM and U.S. EPA’s CCTE. Briefly, LD50 data were collected from rat acute oral systemic toxicity tests, including limit tests, ranges/confidence intervals, and discrete LD50 values. The full data set included 21,200 LD50 entries for 15,688 substances. […] Data were reviewed to ensure that LD50 values with obvious errors in the extracted data such as unit conversion errors (e.g., comma and decimal separator misplacements) were either fixed or removed. After this review, 16,209 LD50 values remained. Many of the chemicals represented had multiple LD50 entries, requiring that a single representative value per Chemical Abstracts Service Registry Number (CASRN) identifier be defined to facilitate modeling efforts. Based on ATWG feedback and to define the representative LD50 as a protective value while accounting for the distribution across multiple LD50s, the median of the lowest quartile was computed using only discrete LD50 values (omitting limit test data and range and confidence interval data). A detailed summary of the data compilation is available online on the NICEATM webpage dedicated to the collaborative modeling project (NTP 2020).
[…][…] For categorical designations, limit test and range/confidence interval LD50 data were integrated wherever possible. As such, the number of chemicals with end point values/calls varies across the modeling end points (Table 3) based on whether chemicals had representative LD50 values and/or other data. If a chemical had both, the representative value was used to determine categorical calls rather than limit test data. Some data were useable only for certain end points and categories depending on the thresholds. For example, ranges that spanned multiple hazard categories were considered only for the binary (very toxic/nontoxic) end points and omitted from rendering a determination for hazard category assignment.
[…]The final data set comprising 11,992 chemicals was split into training and evaluation sets […], respectively. This process was performed semirandomly by ordering chemicals based on the five end points (categorical and continuous LD50 values) and partitioning every fourth record into the evaluation set accordingly. This approach was taken to ensure an equivalent distribution of the LD50 values and the different hazard categories between the training and the evaluation sets without supervised sampling of the chemicals based on structures (Figure 1A). The sources of the chemical structures were also kept equivalent between the two sets, with chemical structures obtained from DSSTox, being the highest quality, representing over 75% of each set (Figure 1B).
One may read the LD50 as the dose expected to kill half of the subjects tested. For `O=C(O)C(Cc1cc(I)c(O)c(I)c1)c1ccccc1` (stereo unspecified), the LD50 is 1100 mg/kg.

Turning to `C(=NC1CCCCC1)=NC1CCCCC1`, the median lethal dose (LD50) is 400 mg/kg.

Regarding `CCCCNCCCCCCN`, the LD50 is 536 mg/kg.

In the case of `O=S1OCC2C(CO1)C1(Cl)C(Cl)=C(Cl)C2(Cl)C1(Cl)Cl` (stereo unspecified), the LD50 was 240 mg/kg.

As to `CC(C)(C)c1cc(C(=O)O)cc(C(C)(C)C)c1O`, the LD50 is 1410 mg/kg.

On to `CCN(CCO)c1ccc(N=O)c(C)c1`, for which the LD50 was 336 mg/kg.

In the case of `CCC(C)=C1C(=O)N(c2ccccc2)N(c2ccccc2)C1=O`, the LD50 is 2020 mg/kg.

Turning to `Cc1cc(C(C)(C)C)c(OB(OC(C)C)OC(C)C)c(C(C)(C)C)c1`, the LD50 was 5200 mg/kg.

Take `COc1ccc(C(=O)CCC(=O)O)c2c(C)c(C)oc12`: the LD50 is 2180 mg/kg.

Take `CCOC(=O)C=Cc1ccc2c(c1)OCO2`: the LD50 was 948 mg/kg.

With `c1ccc2[nH]c(SN3CCCCC3)nc2c1`, the LD50 was 853 mg/kg.

Consider `CCN(CC)CCOc1ccc2nc(N(C)C)sc2c1`, for which the LD50 is 880 mg/kg.

Consider `CC(=O)OC(C(Cl)(Cl)Cl)P(=O)(Oc1ccccc1)Oc1ccccc1` (stereo unspecified), for which the LD50 is 3280 mg/kg.

Consider `Oc1c(Cl)cnc(Cl)c1Cl`, for which the LD50 is 80 mg/kg.

As for `CCCCCCC#CC(=O)OC`, the median lethal dose (LD50) was 2220 mg/kg.

On to `CCCCOC(OCCCC)C(OCCCC)OCCCC`, for which the LD50 was 8900 mg/kg.

Turning to `CCN(CC)CCN1C(=O)CN=C(c2ccccc2F)c2cc(Cl)ccc21`, the LD50 is 879 mg/kg and 980 mg/kg and 978 mg/kg.

Consider `COP(=S)(OC)Oc1ccc(S(C)(=O)=O)c(C)c1`, for which the LD50 is 125 mg/kg.

In the case of `CCCOP(=S)(OCCC)Oc1ccc(S(C)=O)cc1` (stereo unspecified), the LD50 is 50 mg/kg.

In the case of `CC(C)C(NC(=O)COc1ccc(Cl)cc1Cl)C(=O)O` (stereo unspecified), the median lethal dose (LD50) is 750 mg/kg.

For the compound `CC1(S(=O)(=O)O)CC(=O)c2ccccc2C1=O` (stereo unspecified), the LD50 was 4510 mg/kg.

As for `O=C(O)C(F)(F)C(F)(F)C(F)(F)F`, the LD50 was 2140 mg/kg.

Take `N#Cc1cc2[nH]c(C(F)(F)F)nc2c(Cl)c1Cl`: the LD50 was 3960 mg/kg.

`CC(C)CCO`: the LD50 is 1300 mg/kg.

For the compound `O=C(Oc1ccccc1)c1ccccc1C(=O)Oc1ccccc1`, the LD50 was 8000 mg/kg.

As for `O=[N+]([O-])c1c(Cl)c([N+](=O)[O-])c2[nH]c(C(F)(F)F)nc2c1Cl`, the LD50 is 117 mg/kg.

On to `Oc1cc(Cl)c(Cl)cc1Cl`, for which the LD50 is 1620 mg/kg.

As for `CCC(C(=O)O)C1(O)CCCCC1` (stereo unspecified), the LD50 was 4820 mg/kg.

On to `O=C1NCC2(CCN(CCc3ccccc3)CC2)O1`, for which the LD50 is 980 mg/kg and 437 mg/kg.

On to `COc1cc2c3cc1Oc1cc(ccc1O)C[C@@H]1c4c(cc(OC)c(O)c4Oc4ccc(cc4)C[C@@H]3N(C)CC2)CC[N+]1(C)C`, for which the LD50 was 28 mg/kg.

In the case of `CC(C)c1c(C(=O)c2cccnc2)c2ccccc2n1C`, the LD50 is 2400 mg/kg.

In the case of `CO[C@H]1C=CC2=CCN3CCC4=C(CC(=O)OC4)[C@]23C1`, the LD50 was 510 mg/kg.

Regarding `Cc1ncsc1C`, the LD50 was 960 mg/kg.

`Oc1cc(Cl)c(Cl)c(Cl)c1-c1c(Cl)c(Cl)c(Cl)c(Cl)c1OCl`: the LD50 is 360 mg/kg.

In the case of `Cc1cc([N+](=O)[O-])ccc1S(=O)(=O)NCCO`, the LD50 was 4470 mg/kg.

Regarding `CCc1c(C)nc2cccc(C)n2c1=O`, the LD50 is 690 mg/kg.

Take `O=C(C=Cc1ccccc1)OCC=Cc1ccccc1`: the median lethal dose (LD50) was 4200 mg/kg.

With `CC(=O)CC(=O)Nc1ccc(C)cc1C`, the LD50 is 3000 mg/kg.

Consider `CC(C)(C)NCCC(O)c1cc(C(F)(F)F)nc2c(C(F)(F)F)cccc12` (stereo unspecified), for which the LD50 is 2090 mg/kg.

In the case of `CC1(C)[C@H](C=C2CCCC2)[C@H]1C(=O)OCc1coc(Cc2ccccc2)c1`, the LD50 was 63 mg/kg.

For the compound `O=S(=O)(Cl)c1ccccc1`, the LD50 is 1960 mg/kg.

In the case of `FC(F)(F)c1nc2c(Cl)cccc2[nH]1`, the LD50 is 19.2 mg/kg.

With `CCN(CC)CCC1(c2ccccc2)C(=O)Oc2ccccc21` (stereo unspecified), the LD50 is 600 mg/kg.

As to `CC(C)N(C(=O)SCC(Cl)=CCl)C(C)C`, the median lethal dose (LD50) was 395 mg/kg.

`COc1c(Cl)c(Cl)c(OC)c2[nH]c(C(F)(F)F)nc12`: the LD50 is 100 mg/kg.

Consider `COP(=O)(OC)SCN1C(=O)c2ccccc2C1=O`, for which the LD50 is 50 mg/kg.

Regarding `CC(C(=O)O)c1cccc(Oc2ccccc2)c1` (stereo unspecified), the LD50 is 800 mg/kg.

As for `C=CCC#N`, the LD50 is 115 mg/kg.

For `Fc1c(Br)c(F)c2nc(C(F)(F)F)[nH]c2c1Br`, the LD50 is 7.23 mg/kg.

Take `CCOP(=O)(NC)Oc1ccc(SC)c(C)c1` (stereo unspecified): the LD50 was 5 mg/kg.

On to `Cc1c(Br)cc2[nH]c(C(F)(F)F)nc2c1[N+](=O)[O-]`, for which the LD50 is 83 mg/kg.
